This is an account of results in ChEMBL document CHEMBL1201862, “PubChem BioAssay data set” (2004).

Experiment [1] concerns the target Disintegrin and metalloproteinase domain-containing protein 17 (Homo sapiens, UniProt P78536). Description: exosite inhibitors of ADAM17, dose response, biochemical (AID 743260).
Experiment [2] can be described thus: inhibition of ADAM10 peptide cleavage – biochemical, FRET peptide substrate, recombinant human ADAM10, selectivity assay for ADAM17 exosite inhibitor project, dose response (AID 743259).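 Further: ADAM10 enzyme cleaving a FRET peptide substrate.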
Experiment [3] deals with T1, Sentrin-specific protease 8 (Homo sapiens, UniProt Q96LD8).
T1 sequence (Q96LD8 whole entry): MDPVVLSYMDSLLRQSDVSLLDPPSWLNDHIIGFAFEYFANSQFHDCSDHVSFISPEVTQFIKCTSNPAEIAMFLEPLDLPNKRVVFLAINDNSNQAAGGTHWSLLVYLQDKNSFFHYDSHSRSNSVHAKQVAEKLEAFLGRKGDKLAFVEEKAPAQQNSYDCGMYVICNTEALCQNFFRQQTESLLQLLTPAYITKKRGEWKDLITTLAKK
It is filed as functional.

Experiment [4] deals with T2, Fatty acid synthase (Homo sapiens, UniProt P49327). Nature of the experiment: inhibition of human FAS-TE enzyme activity – biochemical, kinetic fluorescence intensity, dose response (AID 624326).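 Further: rate of fluorescence rise from hydrolysis of a fluorogenic O-methyl fluorescein ester substrate.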 It is filed as functional.
T2 sequence (P49327 whole entry): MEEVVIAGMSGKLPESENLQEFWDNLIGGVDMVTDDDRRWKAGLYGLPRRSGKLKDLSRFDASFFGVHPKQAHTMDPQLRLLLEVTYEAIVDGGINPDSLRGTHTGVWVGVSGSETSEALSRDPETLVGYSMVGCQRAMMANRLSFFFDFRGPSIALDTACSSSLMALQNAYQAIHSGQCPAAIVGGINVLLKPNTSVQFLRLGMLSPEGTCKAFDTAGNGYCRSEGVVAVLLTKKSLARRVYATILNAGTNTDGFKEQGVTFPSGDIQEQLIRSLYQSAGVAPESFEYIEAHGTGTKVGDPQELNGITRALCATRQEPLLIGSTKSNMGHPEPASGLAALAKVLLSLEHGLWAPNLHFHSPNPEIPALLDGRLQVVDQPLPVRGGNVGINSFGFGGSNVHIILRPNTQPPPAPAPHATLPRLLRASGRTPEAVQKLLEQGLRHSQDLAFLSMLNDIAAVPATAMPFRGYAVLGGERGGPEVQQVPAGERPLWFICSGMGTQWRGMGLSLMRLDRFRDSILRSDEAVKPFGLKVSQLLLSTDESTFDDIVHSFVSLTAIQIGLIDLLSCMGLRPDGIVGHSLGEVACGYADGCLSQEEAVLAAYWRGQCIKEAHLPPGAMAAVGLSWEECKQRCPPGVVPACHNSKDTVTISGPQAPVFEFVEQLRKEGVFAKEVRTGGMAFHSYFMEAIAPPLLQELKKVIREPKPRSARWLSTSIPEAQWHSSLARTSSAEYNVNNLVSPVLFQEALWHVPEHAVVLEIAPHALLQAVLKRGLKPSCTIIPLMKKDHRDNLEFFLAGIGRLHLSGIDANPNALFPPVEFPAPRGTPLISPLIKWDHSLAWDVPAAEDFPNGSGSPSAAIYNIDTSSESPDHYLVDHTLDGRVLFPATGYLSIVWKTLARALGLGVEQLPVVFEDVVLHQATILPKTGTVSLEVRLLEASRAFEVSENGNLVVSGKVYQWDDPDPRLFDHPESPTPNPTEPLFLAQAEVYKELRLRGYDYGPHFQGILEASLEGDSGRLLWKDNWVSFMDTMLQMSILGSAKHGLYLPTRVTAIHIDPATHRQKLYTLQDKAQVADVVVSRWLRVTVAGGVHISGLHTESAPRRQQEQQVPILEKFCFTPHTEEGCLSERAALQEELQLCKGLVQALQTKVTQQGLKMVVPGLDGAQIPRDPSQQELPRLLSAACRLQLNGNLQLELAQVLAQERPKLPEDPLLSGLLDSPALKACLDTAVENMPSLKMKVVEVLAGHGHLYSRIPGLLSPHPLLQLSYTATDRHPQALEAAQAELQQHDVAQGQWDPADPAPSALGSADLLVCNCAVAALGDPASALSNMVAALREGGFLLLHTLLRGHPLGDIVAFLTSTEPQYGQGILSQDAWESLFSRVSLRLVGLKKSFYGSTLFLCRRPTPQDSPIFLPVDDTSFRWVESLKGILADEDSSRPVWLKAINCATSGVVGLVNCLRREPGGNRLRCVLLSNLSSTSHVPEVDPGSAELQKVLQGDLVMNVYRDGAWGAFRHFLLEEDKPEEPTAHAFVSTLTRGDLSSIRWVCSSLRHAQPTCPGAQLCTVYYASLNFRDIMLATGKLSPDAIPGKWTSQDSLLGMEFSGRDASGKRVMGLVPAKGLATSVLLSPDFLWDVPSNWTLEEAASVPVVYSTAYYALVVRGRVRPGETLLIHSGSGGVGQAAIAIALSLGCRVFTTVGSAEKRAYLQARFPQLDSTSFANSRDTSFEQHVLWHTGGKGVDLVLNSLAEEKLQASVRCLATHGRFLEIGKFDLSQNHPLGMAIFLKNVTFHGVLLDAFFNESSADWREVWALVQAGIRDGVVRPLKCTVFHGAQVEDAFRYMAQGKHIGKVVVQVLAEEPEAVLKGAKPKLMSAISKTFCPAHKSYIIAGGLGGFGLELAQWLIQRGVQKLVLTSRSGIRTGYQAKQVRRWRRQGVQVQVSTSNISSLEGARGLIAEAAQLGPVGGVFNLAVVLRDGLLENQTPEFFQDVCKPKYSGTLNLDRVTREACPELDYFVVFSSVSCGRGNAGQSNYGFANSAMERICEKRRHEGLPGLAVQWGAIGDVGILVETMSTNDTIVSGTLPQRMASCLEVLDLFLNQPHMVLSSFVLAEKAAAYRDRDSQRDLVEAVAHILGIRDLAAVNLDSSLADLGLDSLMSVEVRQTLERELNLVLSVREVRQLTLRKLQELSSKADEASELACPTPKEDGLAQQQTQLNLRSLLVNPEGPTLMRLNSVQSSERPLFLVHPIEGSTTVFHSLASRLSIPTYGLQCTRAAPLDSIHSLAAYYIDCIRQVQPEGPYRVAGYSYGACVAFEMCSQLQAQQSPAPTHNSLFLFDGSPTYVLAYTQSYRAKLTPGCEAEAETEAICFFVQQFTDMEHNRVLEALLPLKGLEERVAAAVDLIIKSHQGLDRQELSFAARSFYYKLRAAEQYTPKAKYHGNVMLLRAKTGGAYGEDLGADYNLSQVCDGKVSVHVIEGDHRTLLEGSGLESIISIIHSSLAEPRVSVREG
For experiment [5], the target named is T3, Small ubiquitin-related modifier 1 (Homo sapiens, UniProt P63165). Nature of the experiment: SUMO1 protein interaction blockers, potency – biochemical, fluorescence polarization, uHTS hits, dose response (AID 624382). Conditions: read-out: IC50_Mean. In kind it is functional. In general terms: Fluorescence polarisation rises when a labelled molecule tumbles more slowly, as on binding a larger partner.
T3 sequence (P63165 whole entry): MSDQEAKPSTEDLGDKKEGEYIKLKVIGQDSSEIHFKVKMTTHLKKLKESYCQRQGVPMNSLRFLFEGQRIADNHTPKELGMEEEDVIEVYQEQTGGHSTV

In experiment [6] the target is T4, Rac GTPase-activating protein 1 (Homo sapiens, UniProt Q9H0H5).
T4 sequence (Q9H0H5 whole entry): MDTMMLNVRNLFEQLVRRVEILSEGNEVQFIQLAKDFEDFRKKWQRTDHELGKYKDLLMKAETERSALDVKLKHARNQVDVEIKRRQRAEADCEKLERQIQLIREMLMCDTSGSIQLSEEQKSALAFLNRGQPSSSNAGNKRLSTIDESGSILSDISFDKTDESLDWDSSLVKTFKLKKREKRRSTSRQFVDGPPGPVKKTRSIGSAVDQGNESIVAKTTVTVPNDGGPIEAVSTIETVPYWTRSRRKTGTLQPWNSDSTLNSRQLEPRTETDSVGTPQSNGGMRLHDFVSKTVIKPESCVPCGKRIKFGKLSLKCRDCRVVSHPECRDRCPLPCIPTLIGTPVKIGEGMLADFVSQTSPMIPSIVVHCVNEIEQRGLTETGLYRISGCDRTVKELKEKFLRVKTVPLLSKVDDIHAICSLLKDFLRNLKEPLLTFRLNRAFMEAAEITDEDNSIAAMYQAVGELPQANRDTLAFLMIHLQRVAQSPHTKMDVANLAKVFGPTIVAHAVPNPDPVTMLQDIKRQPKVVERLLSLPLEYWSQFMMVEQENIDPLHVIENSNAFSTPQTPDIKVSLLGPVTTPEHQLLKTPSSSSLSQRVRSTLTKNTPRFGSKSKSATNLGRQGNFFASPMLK
Nature of the experiment: blockers of MgcRacGAP-driven Rac1 GTP hydrolysis – biochemical, ADP Hunter fluorescence, primary and confirmatory, confirmation (AID 624330). It is filed as functional.

Experiment [7] has as its target T3, Small ubiquitin-related modifier 1. Nature of the experiment: SUMO1 protein-protein binding blockers, potency – biochemical, FRET, dose response (AID 624383). It is filed as functional. The conditions noted are these: read-out: IC50_Mean.
Experiment [8] has as its target T5, Histone-lysine N-methyltransferase NSD2 (Homo sapiens, UniProt O96028).
T5 sequence (O96028 whole entry): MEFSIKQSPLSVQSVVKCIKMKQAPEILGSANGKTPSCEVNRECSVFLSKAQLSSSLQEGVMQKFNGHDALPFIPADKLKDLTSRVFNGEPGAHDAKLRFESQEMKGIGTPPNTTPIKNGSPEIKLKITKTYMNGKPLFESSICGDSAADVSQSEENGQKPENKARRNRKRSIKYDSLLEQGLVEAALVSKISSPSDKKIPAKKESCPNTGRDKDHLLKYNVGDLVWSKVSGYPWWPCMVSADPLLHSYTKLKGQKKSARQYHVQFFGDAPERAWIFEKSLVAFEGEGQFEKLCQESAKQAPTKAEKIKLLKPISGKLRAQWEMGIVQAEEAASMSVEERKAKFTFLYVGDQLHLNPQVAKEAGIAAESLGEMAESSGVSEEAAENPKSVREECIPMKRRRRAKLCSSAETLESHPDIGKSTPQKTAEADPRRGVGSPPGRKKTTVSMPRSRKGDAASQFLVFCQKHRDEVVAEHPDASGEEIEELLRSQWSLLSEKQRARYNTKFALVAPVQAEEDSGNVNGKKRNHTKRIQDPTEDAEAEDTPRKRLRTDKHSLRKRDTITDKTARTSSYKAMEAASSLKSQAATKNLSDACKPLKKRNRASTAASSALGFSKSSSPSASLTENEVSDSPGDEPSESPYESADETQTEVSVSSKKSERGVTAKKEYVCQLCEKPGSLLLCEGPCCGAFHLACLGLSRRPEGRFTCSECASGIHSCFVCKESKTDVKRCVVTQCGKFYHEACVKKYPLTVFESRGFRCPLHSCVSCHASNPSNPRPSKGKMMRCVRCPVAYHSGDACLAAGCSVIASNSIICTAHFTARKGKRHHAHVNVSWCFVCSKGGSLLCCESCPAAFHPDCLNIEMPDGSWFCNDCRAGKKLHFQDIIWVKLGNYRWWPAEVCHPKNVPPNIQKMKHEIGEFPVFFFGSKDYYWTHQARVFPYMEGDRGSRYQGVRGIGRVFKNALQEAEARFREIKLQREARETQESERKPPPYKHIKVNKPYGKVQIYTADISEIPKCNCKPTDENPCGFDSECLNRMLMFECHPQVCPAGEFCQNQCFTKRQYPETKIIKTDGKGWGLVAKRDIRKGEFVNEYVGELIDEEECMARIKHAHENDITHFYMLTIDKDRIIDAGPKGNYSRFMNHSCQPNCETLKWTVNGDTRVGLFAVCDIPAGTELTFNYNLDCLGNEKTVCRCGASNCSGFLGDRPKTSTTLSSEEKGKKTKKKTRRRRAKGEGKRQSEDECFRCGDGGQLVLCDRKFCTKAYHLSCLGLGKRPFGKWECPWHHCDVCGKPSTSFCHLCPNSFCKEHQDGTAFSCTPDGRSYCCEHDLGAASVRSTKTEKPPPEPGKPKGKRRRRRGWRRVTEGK
It is filed as biochemical.

Experiment [9] deals with T6, Small ubiquitin-related modifier 2 (Homo sapiens, UniProt P61956). Nature of the experiment: SUMO2 binding disruption by SUMO1 hits – biochemical, FRET, human SUMO2, uHTS hits, selectivity assay for SUMO1 interaction inhibitor project, dose response (AID 624384). It is filed as functional. Conditions: read-out: IC50_Mean.
T6 sequence (P61956 whole entry): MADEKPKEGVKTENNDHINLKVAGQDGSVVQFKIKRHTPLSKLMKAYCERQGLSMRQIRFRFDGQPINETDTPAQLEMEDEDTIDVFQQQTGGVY
The target of experiment [10] is ORF 73 (Human herpesvirus 8, UniProt O40947). Description: KSHV LANA DNA-binding disruption – biochemical, fluorescence polarization, cherry-picked samples, dose response (AID 504725).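 Further: fluorescence polarization of a labeled DNA duplex reporting LANA DNA binding; potency is for inhibitors that block LANA binding to the DNA.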 Also on record: species or system Human gammaherpesvirus 8.
The target in experiment [11] is Matrix metalloproteinase-14 (Homo sapiens, UniProt P50281). Nature of the experiment: Dose Response confirmation of uHTS hits for a small molecule inhibitors of MT1-MMP activation in a fluorescence assay set 1. It is filed as functional.
The target in experiment [12] is Nonstructural protein 1 (Influenza A virus, UniProt Q194T2). In kind it is functional, Influenza A virus (A/California/07/2009(H1N1)).
Nonstructural protein 1, sequence (Q194T2 whole entry): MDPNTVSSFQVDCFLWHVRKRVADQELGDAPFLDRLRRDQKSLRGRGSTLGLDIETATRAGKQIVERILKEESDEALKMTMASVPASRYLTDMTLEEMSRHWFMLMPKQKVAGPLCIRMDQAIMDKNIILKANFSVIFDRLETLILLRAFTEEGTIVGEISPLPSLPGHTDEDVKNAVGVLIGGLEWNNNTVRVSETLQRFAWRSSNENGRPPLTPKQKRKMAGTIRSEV
Experiment [13] addresses T1, Sentrin-specific protease 8. In kind it is functional. The source holds these as a separate data set.
Experiment [14] deals with Genome polyprotein (dengue virus type 2, UniProt P29990). Nature of the experiment: flavivirus cap methylation enzyme inhibition – biochemical, confirmation dose response, primary screen (AID 588689). In kind it is functional.
Experiment [15] concerns the target T2, Fatty acid synthase. Description: inhibition of human FAS-TE enzyme activity – biochemical, endpoint fluorescence intensity, uHTS hits, dose response (AID 624327).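 Further: fluorescence from hydrolysis of an O-methyl fluorescein acyl ester substrate by the enzyme.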 In kind it is functional.
Experiment [16] has as its target T6, Small ubiquitin-related modifier 2. Description: disruption of SUMO2 interaction with SIM peptide – biochemical, fluorescence polarization, uHTS hits, selectivity assay for SUMO1 interaction inhibitor project, dose response (AID 624385). Conditions: read-out: IC50_Mean. In kind it is functional.
The target in experiment [17] is T7, Polyadenylate-binding protein 1 (Homo sapiens, UniProt P11940). Nature of the experiment: MLLE binding blockers, Cy5 peptide tracer – biochemical, fluorescence polarization, Cy5-PAM2 peptide, secondary, miRNA deadenylation inhibitor project, dose response (AID 602260). It is filed as functional. The conditions noted are these: read-out: IC50_Mean.
T7 sequence (P11940 whole entry): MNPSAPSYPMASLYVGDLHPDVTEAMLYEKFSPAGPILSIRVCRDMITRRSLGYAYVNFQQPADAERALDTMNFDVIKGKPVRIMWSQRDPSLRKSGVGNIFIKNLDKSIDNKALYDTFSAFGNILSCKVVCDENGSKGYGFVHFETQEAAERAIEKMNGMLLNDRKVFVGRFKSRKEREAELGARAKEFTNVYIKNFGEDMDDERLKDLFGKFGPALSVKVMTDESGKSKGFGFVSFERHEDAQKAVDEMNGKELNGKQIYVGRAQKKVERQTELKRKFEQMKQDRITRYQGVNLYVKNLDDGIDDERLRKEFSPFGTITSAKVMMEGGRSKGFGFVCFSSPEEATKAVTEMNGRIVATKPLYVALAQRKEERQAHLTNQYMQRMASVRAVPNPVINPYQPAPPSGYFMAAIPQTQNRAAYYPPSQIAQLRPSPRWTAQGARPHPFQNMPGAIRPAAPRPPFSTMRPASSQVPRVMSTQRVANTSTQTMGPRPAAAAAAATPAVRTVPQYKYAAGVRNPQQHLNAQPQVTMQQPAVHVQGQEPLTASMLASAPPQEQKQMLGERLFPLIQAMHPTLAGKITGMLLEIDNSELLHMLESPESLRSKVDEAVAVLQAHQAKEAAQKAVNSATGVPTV
Experiment [18] in a line: HGIII-sPLA2 enzyme inhibition potency – biochemical, QFRET, IC50, dose response (AID 743457).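 Further: green fluorescence rise as the enzyme cleaves BODIPY PC-A2 in liposomes.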
Experiment [19] addresses T7, Polyadenylate-binding protein 1. Nature of the experiment: MLLE domain peptide-binding blockers, IC50 – biochemical, fluorescence polarization, FITC-PAM2 peptide, dose response (AID 602259). In kind it is functional. Conditions: read-out: IC50_Mean.
Experiment [20] relates to HeLa. Nature of the experiment: viability loss in HeLa cells – cell-based, ATP luminescence, cherry-pick samples, cytotoxicity control, dose response (AID 687004). It is filed as functional. The conditions noted are these: Homo sapiens.
For experiment [21], the system named is HEK293. Nature of the experiment: viability loss in HEK293T cells – cell-based, ATP luminescence, cherry-pick samples, cytotoxicity control, dose response (AID 687005).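 Further: cells exposed to compound for 48 hours.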 It is filed as functional. Conditions: Homo sapiens.
A short description of experiment [22]: HEK293 Cytotoxicity Assay Measured in Cell-Based System Using Plate Reader - 7071-01_Inhibitor_Dose_CherryPick_Activity_Set2. It is filed as functional.
Experiment [23] concerns A549. Nature of the experiment: viability loss in A549 cells – cell-based, plate reader, cherry-pick samples, cytotoxicity control, dose response (AID 687028). In kind it is functional. Conditions: Homo sapiens.
The target in experiment [24] is NS3 (Hepatitis C virus, UniProt A3EZJ3). Nature of the experiment: NS3h DNA-binding inhibition IC50 – biochemical, fluorescence polarization, ChemBridge library, dose response (AID 743264).
NS3, sequence (A3EZJ3 whole entry): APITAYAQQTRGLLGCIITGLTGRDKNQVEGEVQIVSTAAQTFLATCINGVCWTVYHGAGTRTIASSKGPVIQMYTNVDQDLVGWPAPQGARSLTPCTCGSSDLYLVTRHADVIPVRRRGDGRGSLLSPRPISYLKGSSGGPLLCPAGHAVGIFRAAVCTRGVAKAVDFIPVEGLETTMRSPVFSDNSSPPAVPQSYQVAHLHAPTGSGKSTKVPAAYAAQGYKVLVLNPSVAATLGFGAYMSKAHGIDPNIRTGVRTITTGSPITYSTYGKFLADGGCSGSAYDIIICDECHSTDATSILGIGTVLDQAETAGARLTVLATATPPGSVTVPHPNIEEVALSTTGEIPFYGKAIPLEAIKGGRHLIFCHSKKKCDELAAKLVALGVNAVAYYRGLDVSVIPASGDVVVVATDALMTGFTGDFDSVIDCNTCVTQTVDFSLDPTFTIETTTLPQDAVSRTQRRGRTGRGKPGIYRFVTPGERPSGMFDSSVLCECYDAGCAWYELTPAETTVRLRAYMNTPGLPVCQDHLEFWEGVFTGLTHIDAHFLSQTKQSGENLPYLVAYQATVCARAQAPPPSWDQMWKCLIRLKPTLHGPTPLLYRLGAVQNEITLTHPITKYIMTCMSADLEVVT
Experiment [25] can be described thus: T. cruzi growth inhibition in host cells, dose response, cell-based, plate reader, dry powder, set 2 (AID 652275). It is filed as functional.
Experiment [26] is described as follows: A549 cell cytotoxicity, dose response, cytotoxicity control, plate reader, cherry-pick, antagonist series (AID 743412). In kind it is functional, cell-based.
Experiment [27] is described as follows: inhibition of bursicon-driven LGR2 cAMP signaling – cell-based, HEK293, CRE-luciferase reporter, cherry pick, dose response (AID 743342). It is filed as functional.

The AC50 is the midpoint of the concentration-response curve, whichever way the signal moves.

Calls of active or inactive are those of the source. A value given as a limit tells only on which side of the number the result lay.

Disintegrin and metalloproteinase domain-containing protein 17, sequence (P78536 whole entry, the tested form may be a part): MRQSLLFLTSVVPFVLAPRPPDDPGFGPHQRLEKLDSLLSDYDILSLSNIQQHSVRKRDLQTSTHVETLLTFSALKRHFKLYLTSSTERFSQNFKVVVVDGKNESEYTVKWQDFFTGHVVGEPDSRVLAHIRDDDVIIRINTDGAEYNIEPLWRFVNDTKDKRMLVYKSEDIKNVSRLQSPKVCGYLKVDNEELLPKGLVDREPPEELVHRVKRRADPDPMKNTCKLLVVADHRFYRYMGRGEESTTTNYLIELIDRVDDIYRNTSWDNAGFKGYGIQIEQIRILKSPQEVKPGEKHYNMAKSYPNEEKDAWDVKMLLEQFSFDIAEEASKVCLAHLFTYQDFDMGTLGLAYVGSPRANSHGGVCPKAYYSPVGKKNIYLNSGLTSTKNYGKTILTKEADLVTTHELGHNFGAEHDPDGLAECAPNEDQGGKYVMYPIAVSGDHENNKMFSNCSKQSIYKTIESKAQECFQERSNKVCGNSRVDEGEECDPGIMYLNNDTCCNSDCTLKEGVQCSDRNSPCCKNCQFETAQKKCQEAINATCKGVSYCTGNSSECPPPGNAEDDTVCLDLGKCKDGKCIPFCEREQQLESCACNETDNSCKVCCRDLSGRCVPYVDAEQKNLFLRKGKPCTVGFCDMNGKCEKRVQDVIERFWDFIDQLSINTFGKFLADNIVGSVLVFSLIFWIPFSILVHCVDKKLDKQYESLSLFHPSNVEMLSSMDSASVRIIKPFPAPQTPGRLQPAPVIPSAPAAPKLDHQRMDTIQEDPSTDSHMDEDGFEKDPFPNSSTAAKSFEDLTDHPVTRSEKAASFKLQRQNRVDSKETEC

As for `CCOc1ccc(S(=O)(=O)Nc2ccc(F)cc2)c(C)c1C`, the IC50 in experiment [1] was > 69.5 µM (inactive); in [2], > 7.72 µM (active).
For `Cc1ccccc1C1=C/C(=C(\SS/C(C(=O)c2ccc(OCC(=O)O)c(Cl)c2Cl)=C2\C=C(c3ccccc3C)SS2)C(=O)c2ccc(OCC(=O)O)c(Cl)c2Cl)SS1`, the IC50 in experiment [3] is 56.9 µM (active); in experiment [4] it was 6.62 µM (active); in [5], 2.48 µM (active); in experiment [6], 61.1 µM (active); in [7] it was 50.2 µM (inactive); in experiment [9] it was 2.65 µM (active). For the same compound, the IC50 in experiment [11] was 22.7 µM (inactive); in [12] it was 16.1 µM (active); in experiment [13], 9.29 µM (active); in experiment [14] it was 9.25 µM (active); in experiment [15] it was 8.12 µM (active); in experiment [16], 1.51 µM (active). The AC50 in experiment [8] was 6.35 µM (active); in [10], 63.2 µM (active).
`Cc1ccc(NC(=S)N/N=C2/CCCCc3ccccc32)cc1`: the values for the IC50 in [17], in [18] and in experiment [19] were > 66 µM (inactive), > 122 µM (inactive) and > 66 µM (inactive), respectively.
Consider `O=C(C[C@@H]1CC[C@H]2[C@@H](COC[C@H](O)CN2Cc2ccc(Oc3ccccc3)cc2)O1)Nc1nccs1`, for which the AC50 in experiment [20] is 43.9 µM (active); in experiment [21], 7.07 µM (active); in [22] it was 7.07 µM (active).
Consider `C[C@H]1CCCCO[C@H](CN(C)C(=O)Nc2ccc(C(F)(F)F)cc2)[C@@H](C)CN([C@@H](C)CO)C(=O)c2cc(NC(=O)C3CCCCC3)ccc2O1`, for which, in [23], the AC50 was 20.8 µM (active).
On to `Cc1ccc(N2C(=O)NC(=O)/C(=C/c3ccc(-c4cccc(C(=O)O)c4)o3)C2=O)cc1`, for which, in experiment [24], the IC50 is 14.8 µM (inactive).
As to `CN(C)CC#Cc1cccc(-c2nc(C(=O)N[C@@H]3CCN(Cc4ccccc4)C3)cc3c2[C@@H](CCO)N([S+]([O-])C(C)(C)C)C3)c1` (some centres not stated), the AC50 in experiment [25] is 0.0256 µM (active).
Take `C[C@H]1CCCCO[C@@H](CN(C)C(=O)Nc2ccc3c(c2)OCO3)[C@@H](C)CN([C@@H](C)CO)C(=O)c2cc(NC(=O)NC3CCCCC3)ccc2O1`: the concentration at half-maximal activity (AC50) was 35.3 µM (active) in experiment [26] and 16.9 µM (active) in [27].
